# Legend:
# Format in all cases: cell-based, mouse
# brown adipocytes [1] = experiment: Immunoblot of PKA downstream proteins (P-HSL, P-CREB) in brown adipocytes
# Experimental: (§1) Adipocyte precursor cells capable of differentiating into brown adipocytes were isolated from mouse brown adipose tissue. Cells were cultured in Dulbecco's modified Eagle's medium (Welgene, LM001-07) containing 10% fetal bovine serum (FBS, Gibco, 16000044) and 1% Penicillin Streptomycin (Welgene, LS202-02) at 37° C. in a humidified atmosphere with 5% CO2. When the cells reached about 100% confluency, the cells were exposed to a differentiation medium supplemented with 2.5 mM isobutyl methylxanthine (IBMX, Cayman, I5879), 0.125 mM indomethacin (Cayman, 70270), 1 μM dexamethasone (Cayman), 1 μg/mL insulin (Sigma, I9278), and 1 nM triiodothyronine (T3, Cayman, 6028) for 3 days for adipogenesis. Then, the cells were maintained in a growth medium containing 1 μg/mL insulin and 1 nM triiodothyronine (T3) for 3 days.
# (§2) In the case of Western blots, the primary antibodies used for Western blots are summarized in [Table 2] above. An anti-rabbit horseradish peroxidase antibody (1:3000, Thermo Fisher, 31460) and an anti-mouse horseradish peroxidase antibody (1:3000, Jackson, 115-035-174) were used as secondary antibodies. All antibodies were diluted in a blocking buffer (5% skimmed milk or 5% bovine serum albumin in TBST). Western blot images were acquired using a Fusion Solo chemiluminescence imaging system (Vilber Lourmat) and analyzed with Evolution Capt software (version 17.03). NIH ImageJ software was used for quantification.
# brown adipocytes [2] = experiment: Immunoblot of mitochondrial proteins and UCP1 in brown adipocytes
# Experimental: as §1, §2
# brown adipocytes [3] = experiment: Oxygen consumption rate (XFp analyzer); conditions: 0.1 μM, 24 hours
# Experimental: Oxygen consumption rate (OCR) was measured using an XFp analyzer. Cells were cultured in XF DMEM basal medium (Agilent, 103575-100, pH 7.4) supplemented with 4 mM L-glutamine (Sigma, G8540) and 25 mM D-glucose (Sigma, G7021) at 37° C. The XFp Cell Mitochondrial Stress Test Kit (Agilent, 103010-100) was prepared and calculated sequentially with optimal final concentrations of 2.5 μM oligomycin, 0.5 μM FCCP and 0.5 μM rotenone/antimycin A and basal, maximal and proton leakage. Then, the OCR was normalized to protein concentration.
# brown adipocytes [4] = experiment: Cytotoxicity / cell viability (EZ-CYTOX); conditions: 24 hours
# Experimental: as §1
# LJ-4378 is a dual-acting ligand with A2AAR agonist and A3AR antagonist activity. Cell viability was evaluated according to the manufacturer's instructions using EZ-CYTOX (DoGEN, EZ-3000). Absorbance was measured at 450 nm using a microplate reader (Thermo MULTISKAN GO, 8816-2015).
# brown adipocytes [5] = experiment: Lipolysis: glycerol and free fatty acid levels in conditioned medium; conditions: 0.1 μM, 24 hours
# Experimental: as §1
# The free fatty acid (FFA) levels in the medium were measured using an NEFA reagent (WAKO, 436-91693) according to the manufacturer's product protocol.
# Glycerol and free fatty acid (FFA) levels in a medium were measured using a glycerol reagent (Sigma Aldrich, F6428) and a NEFA reagent (WAKO, 436-91693) according to the manufacturer's product protocols.
structure (smiles),measurement,setting,value
"CCCCC#Cc1nc(N)c2ncn([C@@H]3SC[C@@H](O)[C@H]3O)c2n1 [LJ-4378, 2-(6-amino-2-(hex-1-yn-1-yl)-9H-purin-9-yl)tetrahydrothiophene-3,4-diol]","P-CREB, fold increase","brown adipocytes [1]; 0.1 μM, 24 hours, FIG. 3D",2.32±0.05 fold
same,"P-HSL, fold increase","brown adipocytes [1]; 0.1 μM, 24 hours, FIG. 3D",2.10±0.12 fold
same,"P-HSL (serine 660) expression level, fold increase","brown adipocytes [1]; 10^−5, 4 hours",6.87±0.69 fold
same,"P-HSL (serine 660) expression level, fold increase","brown adipocytes [1]; 10^−7, 4 hours",6.64±0.34 fold
same,"P-HSL (serine 660) expression level, fold increase","brown adipocytes [1]; 10^−9 M, 4 hours",3.03±0.21 fold
same,"P-HSL (serine 660) expression level, fold increase","brown adipocytes [1]; 10^−11 M, 4 hours",1.55±0.11 fold
same,"COXIV expression level, fold increase","brown adipocytes [2]; 0.1 μM, 24 hours, FIG. 4A",2.18±0.15 fold
same,"UCP1 expression level, fold increase","brown adipocytes [2]; 0.1 μM, 24 hours, FIG. 4A",2.93±0.23 fold
same,"COXIV, fold increase","brown adipocytes [2]; 0.1 μM, 24 hours, FIG. 4D",2.53±0.08 fold
same,"MCAD, fold increase","brown adipocytes [2]; 0.1 μM, 24 hours, FIG. 4D",4.91±0.02 fold
same,"UCP1, fold increase","brown adipocytes [2]; 0.1 μM, 24 hours, FIG. 4D",2.67±0.38 fold
same,"ATP5A protein, fold increase","brown adipocytes [2]; 10^−5, 48 hours",3.72±0.04 fold
same,"MCAD protein, fold increase","brown adipocytes [2]; 10^−5, 48 hours",2.13±0.03 fold
same,"SDHB protein, fold increase","brown adipocytes [2]; 10^−5, 48 hours",3.71±0.25 fold
same,"UQCRC2 protein, fold increase","brown adipocytes [2]; 10^−5, 48 hours",4.02±0.08 fold
same,"ATP5A protein, fold increase","brown adipocytes [2]; 10^−7, 48 hours",3.94±0.06 fold
same,"MCAD protein, fold increase","brown adipocytes [2]; 10^−7, 48 hours",1.79±0.09 fold
same,"SDHB protein, fold increase","brown adipocytes [2]; 10^−7, 48 hours",3.41±0.47 fold
same,"UQCRC2 protein, fold increase","brown adipocytes [2]; 10^−7, 48 hours",4.21±0.13 fold
same,"ATP5A protein, fold increase","brown adipocytes [2]; 10^−9 M, 48 hours",3.51±0.05 fold
same,"MCAD protein, fold increase","brown adipocytes [2]; 10^−9 M, 48 hours",1.79±0.03 fold
same,"SDHB protein, fold increase","brown adipocytes [2]; 10^−9 M, 48 hours",3.47±0.18 fold
same,"UQCRC2 protein, fold increase","brown adipocytes [2]; 10^−9 M, 48 hours",3.96 fold
same,"ATP5A protein, fold increase","brown adipocytes [2]; 10^−11 M, 48 hours",2.20±0.08 fold
same,"MCAD protein, fold increase","brown adipocytes [2]; 10^−11 M, 48 hours",1.53±0.03 fold
same,"SDHB protein, fold increase","brown adipocytes [2]; 10^−11 M, 48 hours",1.87±0.28 fold
same,"UQCRC2 protein, fold increase","brown adipocytes [2]; 10^−11 M, 48 hours",2.15±0.03 fold
same,increase of OCR related to ATP production,brown adipocytes [3],29.3%
same,increase of OCR related to basal,brown adipocytes [3],30.5%
same,increase of OCR related to maximal,brown adipocytes [3],49.1%
same,concentrations with no effect on cell viability,brown adipocytes [4],less than 100 μM
same,"free fatty acid (FFA) level, fold increase",brown adipocytes [5]; FIG. 2,1.92±0.03 fold
same,"glycerol level in conditioned medium, fold change",brown adipocytes [5]; FIG. 3B,1.61±0.07 fold
same,"FFA level in conditioned medium, fold change",brown adipocytes [5]; FIG. 3C,1.59±0.1 fold

# Source: patent publication US20260027121A1, “LIGAND ACTING ON ADENOSINE RECEPTORS AND COMPOSITION COMPRISING SAME FOR PREVENTION, ALLEVIATION, OR TREATMENT OF OBESITYS” (FUTURE MEDICINE CO., LTD., priority 2022, published 2026)
